Columns and labels:
[1] = for kinetic solubility: 42.5 mg in 2.00 mL purified/de-ionized water, agitated at room temperature for one minute, filtered, gravimetric evaluation of residue
Procedure: (§1) 42.5 mg of the anhydrous form of the crystalline 5-methyl-(6S)-tetrahydrofolic acid L-valine ethyl ester salt (Form A) according to Example 2 was weighed into a 7 mL glass vial with a screw cap. 2.00 mL of purified/de-ionized water (for instance water for chromatography) was added to the solid using an adjustable volumetric pipette. The mixture was vigorously agitated at room temperature for one minute. […] The dilute suspension was filtered by centrifugal filtration and 1.50 mL of the aqueous solution was transferred into a tared glass vial (about 10 mL volume). The water was evaporated in an air dryer at 40° C. for about 15 hours, then at 50° C. for about eight hours, subsequently drying was completed at 50° C. under vacuum (10 to 20 mbar) for about 13 hours. The solubility was determined by gravimetric evaluation of the solid residue.
as §1, with “calcium” for “L-valine ethyl ester”, “salt” for “salt (Form A) according to Example 2”, “The” for “The dilute”

[2] = relative humidity range from 0 to 55%; RH scans 5% per hour
Text: DVS measurements are typically performed with an SPS11-100n “Sorptions Prüfsystem” from ProUmid (formerly “Projekt Messtechnik”), August-Nagel-Str. 23, 89079 Ulm (Germany).
23, 89079 Ulm (Germany). For relative humidity (RH) scans, change rates of 5% per hour were used.

[3] = cited from earlier work; for aqueous solubility: at room temperature, known values for calcium salt polymorphs

Compound: 5-methyl-(6S)-tetrahydrofolic acid L-valine ethyl ester salt
- kinetic solubility [1]: 12.5 mg of 5-methyl-(6S)-tetrahydrofolic acid per mL
- improvement of kinetic solubility versus the known metastable Form 1 of the calcium salt ([1]; versus calcium salt Form 1): about 50%
- change of relative sample mass (DVS) [2]: less than 1%

Compound: 5-methyl-(6S)-tetrahydrofolic acid calcium salt
- kinetic solubility [1]: 9.0 mg of 5-methyl-(6S)-tetrahydrofolic acid per mL
- change of relative sample mass (DVS) [2]: about 6%

Compound: CN1c2c(nc(N)[nH]c2=O)NC[C@@H]1CNc1ccc(C(=O)N[C@@H](CCC(=O)O)C(=O)O)cc1 [5-methyl-(6S)-tetrahydrofolic acid]
- solubility in water (in words) ([3]; water): poorly soluble

Compound: CN1c2c([nH]c(N)nc2=O)NC[C@@H]1CNc1ccc(C(=O)N[C@@H](CCC(=O)[O-])C(=O)[O-])cc1.[Ca+2] [calcium salt (Form Ill), calcium salt of 5-methyl-(6S)-tetrahydrofolic acid]
- aqueous solubility [3]: about 2.5 mg/ml

Compound: CN1c2c([nH]c(N)nc2=O)NC[C@@H]1CNc1ccc(C(=O)N[C@@H](CCC(=O)[O-])C(=O)[O-])cc1.[Ca+2] [metastable Form I, calcium salt of 5-methyl-(6S)-tetrahydrofolic acid]
- aqueous solubility [3]: about 10 mg/ml

Reference: patent publication US11992491B2, “Crystalline salts of 5-methyl-(6S)-tetrahydrofolic acid and L-valine ethyl ester” (Merck Patent GmbH, priority 2018, dated 2024)
